{"source": "ChEMBL document CHEMBL1201862", "about": "“PubChem BioAssay data set” (2004)", "key": {"Cytochrome P450 3A4": {"molecular_target": "Cytochrome P450 3A4 (Homo sapiens, UniProt P08684)", "sequence (P08684 whole entry)": "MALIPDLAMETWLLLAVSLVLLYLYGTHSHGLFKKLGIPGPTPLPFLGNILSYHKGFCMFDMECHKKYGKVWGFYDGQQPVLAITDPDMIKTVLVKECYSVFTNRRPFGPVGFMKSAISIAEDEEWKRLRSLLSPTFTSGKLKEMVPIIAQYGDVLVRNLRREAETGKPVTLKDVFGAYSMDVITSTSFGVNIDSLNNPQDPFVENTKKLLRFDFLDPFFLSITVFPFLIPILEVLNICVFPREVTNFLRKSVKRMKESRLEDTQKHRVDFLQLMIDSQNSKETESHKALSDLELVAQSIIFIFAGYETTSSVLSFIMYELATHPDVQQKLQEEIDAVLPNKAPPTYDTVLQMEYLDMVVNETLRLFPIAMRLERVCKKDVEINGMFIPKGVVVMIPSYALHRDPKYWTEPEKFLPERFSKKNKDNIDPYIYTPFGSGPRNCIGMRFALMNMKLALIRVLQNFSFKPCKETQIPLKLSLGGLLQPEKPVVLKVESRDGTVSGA", "details": "Potency"}, "P388/ADR": {"system": "P388/ADR", "assay": "cells", "format": "functional", "details": "Mus musculus"}, "SN12K1": {"system": "SN12K1", "assay": "cells", "format": "functional", "details": "Homo sapiens"}, "P388": {"system": "P388", "assay": "cells", "format": "functional", "details": "Mus musculus"}, "[1]": {"molecular_target": "FAD-linked sulfhydryl oxidase ALR (Homo sapiens, UniProt P55789)", "sequence (P55789 whole entry)": "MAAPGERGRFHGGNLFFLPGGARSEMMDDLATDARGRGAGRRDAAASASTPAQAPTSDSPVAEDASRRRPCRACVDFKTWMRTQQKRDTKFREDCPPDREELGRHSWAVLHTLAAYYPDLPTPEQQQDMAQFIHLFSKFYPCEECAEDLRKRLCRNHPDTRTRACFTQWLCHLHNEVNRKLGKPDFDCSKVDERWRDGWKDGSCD", "assay": "ALR-catalysed DTT oxidation blockers – biochemical, H2O2 detection, luminescence, cherry-pick, dose response (AID 493248)"}, "[2]": {"molecular_target": "T1, Corticotropin-releasing factor receptor 2/Corticotropin-releasing factor-binding protein (Homo sapiens, UniProt P24387+Q13324)", "T1 sequence (Q13324 whole entry)": "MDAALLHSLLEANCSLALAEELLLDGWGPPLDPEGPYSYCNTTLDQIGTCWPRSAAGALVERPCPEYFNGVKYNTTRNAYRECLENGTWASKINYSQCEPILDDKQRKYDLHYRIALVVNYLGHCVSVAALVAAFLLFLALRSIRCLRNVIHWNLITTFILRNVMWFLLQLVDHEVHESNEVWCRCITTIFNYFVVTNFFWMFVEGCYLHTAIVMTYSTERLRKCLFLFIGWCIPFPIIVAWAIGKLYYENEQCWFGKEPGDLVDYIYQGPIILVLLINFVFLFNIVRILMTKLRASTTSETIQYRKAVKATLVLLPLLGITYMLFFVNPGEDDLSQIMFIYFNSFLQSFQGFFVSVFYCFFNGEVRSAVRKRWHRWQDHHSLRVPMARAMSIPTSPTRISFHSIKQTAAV", "T1 sequence (P24387 whole entry)": "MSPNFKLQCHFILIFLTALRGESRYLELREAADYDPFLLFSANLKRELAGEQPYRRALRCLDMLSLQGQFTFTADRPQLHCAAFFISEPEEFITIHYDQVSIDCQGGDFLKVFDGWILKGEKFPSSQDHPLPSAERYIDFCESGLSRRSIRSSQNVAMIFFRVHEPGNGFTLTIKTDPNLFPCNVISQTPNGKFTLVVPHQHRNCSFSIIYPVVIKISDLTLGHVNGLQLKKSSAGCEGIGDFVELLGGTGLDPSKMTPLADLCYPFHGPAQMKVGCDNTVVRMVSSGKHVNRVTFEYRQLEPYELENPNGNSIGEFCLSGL", "assay": "Dose Response confirmation of uHTS hits for small molecule antagonists of the CRF-binding protein and CRF-R2 receptor complex.", "format": "functional", "details": "read-out: IC50_Mean"}, "[3]": {"molecular_target": "T1, Corticotropin-releasing factor receptor 2/Corticotropin-releasing factor-binding protein", "assay": "activators of CRF receptor 2 with binding protein – uHTS hits, confirmation (AID 602473)", "format": "functional", "details": "read-out: EC50_Mean"}, "Leucine aminopeptidase": {"molecular_target": "T2, Leucine aminopeptidase (Plasmodium falciparum 3D7, UniProt Q8IL11)", "T2 sequence (Q8IL11 whole entry)": "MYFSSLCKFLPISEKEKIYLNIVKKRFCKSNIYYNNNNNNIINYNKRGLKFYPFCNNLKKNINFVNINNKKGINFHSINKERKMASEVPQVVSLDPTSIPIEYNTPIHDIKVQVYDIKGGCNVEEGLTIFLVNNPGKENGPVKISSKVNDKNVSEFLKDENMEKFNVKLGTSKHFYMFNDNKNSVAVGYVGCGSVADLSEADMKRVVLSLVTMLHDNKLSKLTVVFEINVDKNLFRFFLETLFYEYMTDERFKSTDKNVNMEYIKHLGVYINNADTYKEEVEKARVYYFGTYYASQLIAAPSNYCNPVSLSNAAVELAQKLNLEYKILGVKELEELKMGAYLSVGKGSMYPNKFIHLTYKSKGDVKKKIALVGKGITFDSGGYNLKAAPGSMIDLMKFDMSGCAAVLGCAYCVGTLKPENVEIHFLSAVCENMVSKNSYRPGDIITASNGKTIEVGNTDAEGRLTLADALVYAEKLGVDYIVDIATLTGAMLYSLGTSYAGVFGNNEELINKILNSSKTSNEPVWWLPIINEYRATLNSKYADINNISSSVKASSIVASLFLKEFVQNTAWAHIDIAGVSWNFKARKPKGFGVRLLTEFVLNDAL", "assay": "P. falciparum M17LAP inhibitors, primary screen, biochemical, fluorogenic H-Leu-NHMec substrate, 1536-well (AID 1619)", "format": "functional"}, "[4]": {"molecular_target": "T3, Replicative DNA helicase DnaB (Mycobacterium tuberculosis, UniProt P9WMR3)", "T3 sequence (P9WMR3 whole entry)": "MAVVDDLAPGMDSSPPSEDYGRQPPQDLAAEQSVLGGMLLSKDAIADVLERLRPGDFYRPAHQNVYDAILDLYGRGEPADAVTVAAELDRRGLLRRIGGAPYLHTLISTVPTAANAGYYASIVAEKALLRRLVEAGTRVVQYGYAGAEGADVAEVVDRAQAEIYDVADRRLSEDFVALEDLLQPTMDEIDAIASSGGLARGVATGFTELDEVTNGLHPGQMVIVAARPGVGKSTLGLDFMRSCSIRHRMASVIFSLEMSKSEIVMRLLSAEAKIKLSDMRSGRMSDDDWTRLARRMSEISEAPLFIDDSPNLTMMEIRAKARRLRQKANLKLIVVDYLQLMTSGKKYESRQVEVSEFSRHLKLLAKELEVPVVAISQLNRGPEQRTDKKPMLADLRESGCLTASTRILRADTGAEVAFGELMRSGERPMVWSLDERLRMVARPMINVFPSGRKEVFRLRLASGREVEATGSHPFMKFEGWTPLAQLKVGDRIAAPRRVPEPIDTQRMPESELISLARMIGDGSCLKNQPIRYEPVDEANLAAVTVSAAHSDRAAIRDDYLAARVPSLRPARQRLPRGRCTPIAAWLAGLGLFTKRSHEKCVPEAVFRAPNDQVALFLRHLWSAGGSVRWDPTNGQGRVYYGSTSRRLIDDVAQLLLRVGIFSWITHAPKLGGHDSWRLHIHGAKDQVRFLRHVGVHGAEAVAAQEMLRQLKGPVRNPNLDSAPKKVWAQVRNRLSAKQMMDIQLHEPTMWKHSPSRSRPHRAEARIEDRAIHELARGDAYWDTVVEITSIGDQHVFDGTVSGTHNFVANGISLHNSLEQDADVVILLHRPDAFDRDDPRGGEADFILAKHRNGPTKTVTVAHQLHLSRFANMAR", "assay": "DnaB intein splicing inhibitors, dose response, biochemical, cell-free fluorescence (AID 449749)", "format": "functional"}, "Protein RecA": {"molecular_target": "T4, Protein RecA (Mycobacterium tuberculosis, UniProt P9WHJ3)", "T4 sequence (P9WHJ3 whole entry)": "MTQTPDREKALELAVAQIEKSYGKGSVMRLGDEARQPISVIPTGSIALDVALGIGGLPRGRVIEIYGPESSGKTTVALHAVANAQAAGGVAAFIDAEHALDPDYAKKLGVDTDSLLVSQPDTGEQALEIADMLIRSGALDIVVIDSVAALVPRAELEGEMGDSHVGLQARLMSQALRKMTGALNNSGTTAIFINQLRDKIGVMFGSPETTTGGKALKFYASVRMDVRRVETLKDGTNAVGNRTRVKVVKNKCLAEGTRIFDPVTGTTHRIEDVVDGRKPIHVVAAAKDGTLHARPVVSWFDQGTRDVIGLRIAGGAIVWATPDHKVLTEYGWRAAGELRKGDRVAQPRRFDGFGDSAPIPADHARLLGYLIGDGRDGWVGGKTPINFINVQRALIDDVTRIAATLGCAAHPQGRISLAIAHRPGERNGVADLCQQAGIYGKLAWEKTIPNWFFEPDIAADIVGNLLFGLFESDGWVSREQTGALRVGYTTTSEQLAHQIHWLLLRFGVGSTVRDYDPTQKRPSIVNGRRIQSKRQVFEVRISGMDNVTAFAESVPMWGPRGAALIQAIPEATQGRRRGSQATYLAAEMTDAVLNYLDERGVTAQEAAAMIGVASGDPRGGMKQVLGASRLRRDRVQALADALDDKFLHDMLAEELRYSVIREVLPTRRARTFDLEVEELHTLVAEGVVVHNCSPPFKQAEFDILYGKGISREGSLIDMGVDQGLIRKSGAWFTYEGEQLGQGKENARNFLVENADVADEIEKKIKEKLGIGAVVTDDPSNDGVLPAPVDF", "assay": "Fluorescence Cell-Free Homogeneous Dose Retest to Identify Inhibitors of RecA-Intein Splicing Activity. [Related pubchem assays (depositor defined):AID2097, AID2223, AID489010, AID492950]", "format": "functional"}, "[5]": {"assay": "blockers of HIV-1 ZM109 envelope-driven cell-cell fusion – HeLa effector, CEM target cells, luciferase, cherry-pick, dose response (AID 652058);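 further: luciferase signal from HIV-1 Env mediated cell-cell fusion of effector and target cells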", "format": "functional, cell-based"}}, "note": "Active and inactive are the calls of the source."}
{"smiles": "CCCn1c(-c2ccc(F)cc2)nc2c(NCCCN(CC)CC)nc(C)nc21", "values": [{"measurement": "AC50", "setting": "Cytochrome P450 3A4", "value": "20 µM (inconclusive)"}]}
{"smiles": "CN(C)CCNC(=O)c1cccc2c1Nc1ccccc1S2", "values": [{"measurement": "GI50", "setting": "P388/ADR", "value": "2.84 µM (inactive)"}, {"measurement": "GI50", "setting": "SN12K1", "value": "8.18 µM (inactive)"}, {"measurement": "GI50", "setting": "P388", "value": "2.25 µM (inactive)"}]}
{"smiles": "Cc1c(-c2cc3n(n2)C(c2cccs2)C(C#N)=C(c2ccccc2)N3)c(=O)n(-c2ccccc2)n1C", "note": "(stereo not given)", "values": [{"measurement": "GI50", "setting": "P388/ADR", "value": "76.4 µM (inactive)"}, {"measurement": "GI50", "setting": "SN12K1", "value": "86.5 µM (inactive)"}, {"measurement": "GI50", "setting": "P388", "value": "42.1 µM (inactive)"}]}
{"smiles": "Cn1c(N)c(C(=O)COC(=O)c2cc(C3CC3)nc3ccccc23)c(=O)n(C)c1=O", "values": [{"measurement": "AC50", "setting": "Cytochrome P450 3A4", "value": "39.8 µM (inconclusive)"}]}
{"smiles": "Cc1c(C)c(C)c(C(=O)CCc2cccc(NC(=O)CCC(=O)O)c2)c(C)c1C", "values": [{"measurement": "AC50", "setting": "[1]", "value": "1.72 µM (active)"}]}
{"smiles": "CC(=O)OC[C@@]1(O)C[C@]23CCC4c5ccoc5CC[C@@]4(C)C2CCC1C3", "note": "(stereo not given in full)", "values": [{"measurement": "AC50", "setting": "Cytochrome P450 3A4", "value": "31.6 µM (inconclusive)"}]}
{"smiles": "NC(=O)/N=N/C(N)=O", "note": "[E927A]", "values": [{"measurement": "AC50", "setting": "Cytochrome P450 3A4", "value": "31.6 µM (inconclusive)"}]}
{"smiles": "COc1ccc2c(C)cc(SCn3nnc4ccccc4c3=O)nc2c1", "values": [{"measurement": "IC50", "setting": "[2]", "value": "> 47.1 µM (inactive)"}, {"measurement": "EC50", "setting": "[3]", "value": "> 53 µM (inactive)"}]}
{"smiles": "CC1=NN(C(=O)c2ccccc2)C(=O)C1/N=N/c1ccccc1C(=O)O", "note": "(stereo not given)", "values": [{"measurement": "GI50", "setting": "P388/ADR", "value": "5.55 µM (inactive)"}, {"measurement": "GI50", "setting": "SN12K1", "value": "3.24 µM (inactive)"}, {"measurement": "GI50", "setting": "P388", "value": "9.51 µM (inactive)"}]}
{"smiles": "COc1cccc2c1C(=O)c1c(O)c3c(c(O)c1C2=O)C[C@@](O)(C(=O)CO)C[C@@H]3OC1CC(N2CCOCC2C#N)C(O)C(C)O1", "note": "(stereo not given in full)", "values": [{"measurement": "GI50", "setting": "SN12K1", "value": "1.13e-05 µM (active)"}, {"measurement": "GI50", "setting": "P388", "value": "2.9e-06 µM (active)"}]}
{"smiles": "Cc1ccc(-c2[nH]nc3c2C(c2ccsc2)C(C#N)=C(N)O3)cc1", "note": "(stereo not given)", "values": [{"measurement": "IC50", "setting": "Leucine aminopeptidase", "value": "11.3 µM (active)"}, {"measurement": "AC50", "setting": "[4]", "value": "3.26 µM (active)"}, {"measurement": "EC50", "setting": "Protein RecA", "value": "1.2 µM (active)"}]}
{"smiles": "CN(C)c1ccc(C(=O)NNC(=O)c2ccc(Cl)cc2)cc1", "values": [{"measurement": "IC50", "setting": "[2]", "value": "> 47.1 µM (inactive)"}, {"measurement": "EC50", "setting": "[3]", "value": "> 53 µM (inactive)"}]}
{"smiles": "OCC1OC(n2cnc3c2NC=NC[C@H]3O)CC1O", "note": "(stereo not given in full)", "values": [{"measurement": "GI50", "setting": "P388/ADR", "value": "291 µM (inactive)"}, {"measurement": "GI50", "setting": "SN12K1", "value": "405 µM (inactive)"}, {"measurement": "GI50", "setting": "P388", "value": "366 µM (inactive)"}]}
{"smiles": "O=S(=O)(Nc1ccccc1O)c1ccc2[nH]c(O)nc2c1", "values": [{"measurement": "AC50", "setting": "[1]", "value": "2.1 µM (active)"}]}
{"smiles": "COC(=O)C1=C(C(=O)c2ccccc2)C(c2ccc(O)c(OC)c2)n2nnnc2N1", "note": "(stereo not given)", "values": [{"measurement": "IC50", "setting": "[2]", "value": "> 47.1 µM (inactive)"}, {"measurement": "EC50", "setting": "[3]", "value": "> 53 µM (inactive)"}]}
{"smiles": "C[C@@H]1CN([C@H](C)CO)C(=O)c2cccc(NC(=O)c3cnccn3)c2O[C@H]1CN(C)Cc1ccccc1", "values": [{"measurement": "AC50", "setting": "[5]", "value": "36.6 µM (active)"}]}
